How the values were obtained:
[1] = target: T1, Glucose-dependent insulinotropic receptor (Homo sapiens, UniProt Q8TDV5); assay: Agonist activity at human GPR119 receptor expressed in CHO-K1 cells assessed as cAMP accumulation after 30 mins by HTRF assay; type: functional, cell-based
T1 sequence (Q8TDV5 whole entry): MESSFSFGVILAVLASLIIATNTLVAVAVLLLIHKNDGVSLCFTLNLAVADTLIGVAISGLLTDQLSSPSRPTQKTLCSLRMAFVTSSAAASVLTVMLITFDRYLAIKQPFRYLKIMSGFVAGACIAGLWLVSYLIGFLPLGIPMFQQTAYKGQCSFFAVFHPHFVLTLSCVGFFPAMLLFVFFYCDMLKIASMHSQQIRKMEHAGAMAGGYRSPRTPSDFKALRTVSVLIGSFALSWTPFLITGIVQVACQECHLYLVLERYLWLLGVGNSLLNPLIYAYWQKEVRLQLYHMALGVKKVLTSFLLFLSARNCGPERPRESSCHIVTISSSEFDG

[2] = target: T2, Glucose-dependent insulinotropic receptor (Mus musculus) (UniProt Q7TQP3); assay: Agonist activity at mouse GPR119 receptor expressed in CHO-K1 cells assessed as cAMP accumulation after 30 mins by HTRF assay relative to AR231453; type: functional, cell-based
T2 sequence (whole entry): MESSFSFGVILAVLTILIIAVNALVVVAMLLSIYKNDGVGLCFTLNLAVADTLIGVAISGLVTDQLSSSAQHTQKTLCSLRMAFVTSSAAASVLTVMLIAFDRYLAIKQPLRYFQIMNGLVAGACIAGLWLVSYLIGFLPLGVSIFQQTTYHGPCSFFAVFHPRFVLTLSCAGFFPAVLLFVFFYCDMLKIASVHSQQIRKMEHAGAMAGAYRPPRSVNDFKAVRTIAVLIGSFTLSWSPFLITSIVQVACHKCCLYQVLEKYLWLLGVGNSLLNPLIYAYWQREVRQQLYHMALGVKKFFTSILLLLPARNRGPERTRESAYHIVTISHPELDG

[3] = target: T3, Glucose-dependent insulinotropic receptor (Homo sapiens) (UniProt Q8TDV5); assay: Agonist activity at human GPR119 receptor expressed in CHO-K1 cells assessed as cAMP accumulation after 30 mins by HTRF assay relative to AR231453; type: functional, cell-based
T3 sequence (whole entry): T1 sequence (Q8TDV5 whole entry)

[4] = target: T4, Glucose-dependent insulinotropic receptor (Mus musculus, UniProt Q7TQP3); assay: Agonist activity at mouse GPR119 receptor expressed in CHO-K1 cells assessed as cAMP accumulation after 30 mins by HTRF assay; type: functional, cell-based
T4 sequence (Q7TQP3 whole entry): T2 sequence (whole entry)

[5] = target: T3, Glucose-dependent insulinotropic receptor (Homo sapiens); assay: Agonist activity at human GPR119 receptor expressed in CHO-K1 cells assessed as cAMP accumulation at 10 uM after 30 mins by HTRF assay; type: functional, cell-based
Mus musculus [6] = assay: Antidiabetic activity in po dosed fasted C57BL/6j mouse assessed as decrease in glucose excursion administered 30 mins prior to oral glucose-challenge by oral glucose tolerance test; type: functional, organism-based
Mus musculus [7] = assay: Antidiabetic activity in fasted C57BL/6j mouse assessed as increase in plasma GLP-1 level at 30 mg/kg, po after 30 mins by ELISA relative to control; type: functional
Mus musculus [8] = assay: Antidiabetic activity in fasted C57BL/6j mouse assessed as decrease in glucose excursion at 3 mg/kg, po administered 30 mins prior to oral glucose-challenge measured after 120 mins by oral glucose tolerance test; type: functional; set-up: scale not given: the % may be the effect or the level left
Mus musculus [9] = assay: Antidiabetic activity in fasted C57BL/6j mouse assessed as decrease in glucose excursion at 10 mg/kg, po administered 30 mins prior to oral glucose-challenge measured after 120 mins by oral glucose tolerance test; type: functional; set-up: scale not given: the % may be the effect or the level left
Mus musculus [10] = assay: Antidiabetic activity in fasted C57BL/6j mouse assessed as decrease in glucose excursion at 10 mg/kg, po administered 30 mins prior to subcutaneous glucose-challenge after 120 mins by subcutaneous glucose tolerance test; type: functional; set-up: scale not given: the % may be the effect or the level left
[11] = target: T3, Glucose-dependent insulinotropic receptor (Homo sapiens); assay: Agonist activity at human GPR119 receptor expressed in CHO-K1 cells assessed as cAMP accumulation at 1 uM after 30 mins by HTRF assay; type: functional, cell-based

Structure (SMILES) | EC50 [1] [nM] | Emax [2] [%] | Emax [3] [%] | EC50 [4] [nM] | also measured
CCc1cnc(N2CCC(CCCNc3ccc4c(c3)OCC4=O)CC2)nc1 | 117 | 98 | 115 | 159 | –
CC(C)(C)OC(=O)N1CCC(CCCNc2ccc3c(c2)CNC3=O)CC1 | 550 | 102 | 91 | 515 | –
CC(C)c1nsc(N2CCC(CCCNc3ccc4c(c3)OCC4=O)CC2)n1 | 121 | 93 | 10 | 812 | –
CCc1cnc(N2CCC(CCCNc3ccc4c(c3)C(=O)CC4)CC2)nc1 | 51 | 110 | 113 | 167 | Activity (Mus musculus [6]): Dose-dependent effect; fold change (FC) (Mus musculus [7]): >2; Activity (Mus musculus [8]): 29%; Activity (Mus musculus [9]): 38%; Activity (Mus musculus [10]): 32%
CC(C)(C)OC(=O)N1CCC(CCCCCNc2ccc3c(c2)CCS3(=O)=O)CC1 | 145 | – | 65 | – | –
CC(C)(C)OC(=O)N1CCC(CCCCNc2ccc3c(c2)CCS3(=O)=O)CC1 | 210 | – | 62 | – | –
COC(=O)c1cnc(N2CCC(CCCNc3ccc4c(c3)OCC4=O)CC2)nc1 | 149 | 67 | 85 | 139 | –
CC(C)(C)OC(=O)N1CCC(CCCNc2ccc3c(c2)OCCS3(=O)=O)CC1 | 511 | – | 81 | – | –
CC(C)(C)OC(=O)N1CCC(CCCNc2ccc3c(c2)S(=O)(=O)CC3)CC1 | 1030 | – | 25 | – | –
CC(C)c1nc(N2CCC(CCCNc3ccc4c(c3)OCC4=O)CC2)no1 | 161 | – | 91 | – | –
COc1cnc(N2CCC(CCCNc3ccc4c(c3)OCC4=O)CC2)nc1 | 115 | 106 | 101 | 60 | –
CC(C)(C)OC(=O)N1CCC(CCCC(=O)Nc2ccc3c(c2)CCS3(=O)=O)CC1 | 2610 | – | 56 | – | –
CC(C)c1nnc(N2CCC(CCCNc3ccc4c(c3)OCC4=O)CC2)o1 | 704 | 88 | 85 | 1020 | –
CC(C)(C)OC(=O)N1CCC(CCCNc2ccc3c(c2)CCC3=O)CC1 | 86 | 105 | 85 | 87 | –

The next lines start with results.

EC50 [1] [nM] | Emax [2] [%] | Emax [3] [%] | EC50 [4] [nM] | Structure (SMILES) | also measured
88 | 116 | 95 | 262 | CC(C)(C)OC(=O)N1CCC(CCCNc2ccc3c(c2)C(=O)CO3)CC1 | –
52 | 108 | 94 | 66 | CC(C)(C)OC(=O)N1CCC(CCCNc2ccc3c(c2)OCC3=O)CC1 | –
– | – | 10 | – | CN(CCNc1ccc2c(c1)CCS2(=O)=O)C1CCN(C(=O)OC(C)(C)C)CC1 | Activity [5]: 10%
268 | 95 | 99 | 331 | CC(C)(C)OC(=O)N1CCC(CCCNc2ccc3c(c2)NNS3(=O)=O)CC1 | –
73 | – | 94 | – | CC(C)c1noc(N2CCC(CCCNc3ccc4c(c3)OCC4=O)CC2)n1 | –
734 | 97 | 89 | 892 | CC(C)(C)OC(=O)N1CCC(CCCNc2ccc3c(c2)C(=O)NC3)CC1 | –
736 | – | 84 | – | CC(C)(C)OC(=O)N1CCC(CCCOc2ccc3c(c2)CCS3(=O)=O)CC1 | –
– | – | 33 | – | CC(C)(C)OC(=O)N1CCC(OCCNc2ccc3c(c2)CCS3(=O)=O)CC1 | Activity [11]: 33%
46 | 110 | 98 | 123 | CC(C)(C)OC(=O)N1CCC(CCCNc2ccc3c(c2)C(=O)CC3)CC1 | –
58 | 113 | 110 | 158 | CC(C)c1noc(N2CCC(CCCNc3ccc4c(c3)C(=O)CC4)CC2)n1 | –
270 | 83 | 80 | 224 | CC(C)(C)OC(=O)N1CCC(CCCNc2ccc3c(c2)CCS3(=O)=O)CC1 | –
770 | – | 38 | – | CC(C)(C)OC(=O)N1CCC(CCCNc2ccc3c(c2)CCCCC3=O)CC1 | –
254 | 105 | 93 | 266 | CC(C)(C)OC(=O)N1CCC(CCCNc2ccc3c(c2)OCS3(=O)=O)CC1 | –
272 | 108 | 100 | 351 | CC(C)(C)OC(=O)N1CCC(CCCNc2ccc3c(c2)C(=O)CCO3)CC1 | –

— ChEMBL document CHEMBL2057173, “Synthesis and SAR studies of bicyclic amine series GPR119 agonists” (Bioorg Med Chem Lett, 2012)
